Values quoted from earlier work, collected in US20230013403A1, “COMPOSITIONS COMPRISING HUMAN MILK OLIGOSACCHARIDES FOR USE IN A SUBJECT TO SUPPORT LANGUAGE DEVELOPMENT” (SOCIETE DES PRODUITS NESTLE S.A., priority 2019, published 2023).

System: rodents
Conditions: chronic oral administration

2′ fucosyllactose [2′FL]
learning and working memory functions of treated animals: significantly better
